Experimental data taken from US20230183239A1, “ECTONUCLEOTIDE PYROPHOSPHATASE-PHOSPHODIESTERASE 1 (ENPP-1) INHIBITORS AND USES THEREOF” (AbbVie Inc., priority 2017, published 2023).
Like-named read-outs stand apart in the source and are kept apart here.

Key:
Type in all cases: biochemical
ENPP1 [1] = biological target: T1, ENPP1 (Homo sapiens, UniProt P22413); experiment: Indirect quantitation of 2',3'-cGAMP hydrolysis (AMP-Glo Assay kit)
T1 sequence (P22413 1-925): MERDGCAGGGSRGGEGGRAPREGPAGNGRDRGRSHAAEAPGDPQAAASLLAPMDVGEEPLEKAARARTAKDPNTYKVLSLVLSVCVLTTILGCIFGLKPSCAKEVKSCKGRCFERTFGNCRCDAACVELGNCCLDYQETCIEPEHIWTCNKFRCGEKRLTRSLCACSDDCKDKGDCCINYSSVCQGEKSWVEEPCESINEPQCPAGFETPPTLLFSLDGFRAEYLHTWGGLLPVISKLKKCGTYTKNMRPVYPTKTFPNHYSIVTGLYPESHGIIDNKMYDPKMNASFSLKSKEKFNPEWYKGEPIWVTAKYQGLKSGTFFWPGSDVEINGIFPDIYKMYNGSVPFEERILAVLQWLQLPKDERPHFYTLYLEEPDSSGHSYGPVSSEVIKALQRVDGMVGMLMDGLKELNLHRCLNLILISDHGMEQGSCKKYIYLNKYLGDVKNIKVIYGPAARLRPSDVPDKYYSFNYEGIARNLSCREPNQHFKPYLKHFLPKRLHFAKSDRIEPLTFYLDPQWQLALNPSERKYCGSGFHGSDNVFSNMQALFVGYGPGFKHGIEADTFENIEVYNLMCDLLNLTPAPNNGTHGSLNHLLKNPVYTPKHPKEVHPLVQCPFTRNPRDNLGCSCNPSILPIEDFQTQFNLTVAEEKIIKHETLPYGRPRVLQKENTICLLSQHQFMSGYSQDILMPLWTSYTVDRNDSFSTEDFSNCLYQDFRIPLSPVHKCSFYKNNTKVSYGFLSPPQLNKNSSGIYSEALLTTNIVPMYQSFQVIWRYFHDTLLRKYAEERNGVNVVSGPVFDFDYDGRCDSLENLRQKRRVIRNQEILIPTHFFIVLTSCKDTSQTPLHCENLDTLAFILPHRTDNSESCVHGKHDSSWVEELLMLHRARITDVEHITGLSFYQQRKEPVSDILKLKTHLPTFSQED

ENPP1 [2] = biological target: T1, ENPP1; experiment: ENPP1 enzyme assay with cGAMP substrate (AMP-Glo); parameters: purchased R&D Systems; settings: for inhibition at 1 µM: read-out: cGAMP: % Inhibition at 1 µM
Excerpt: Example B1: ENPP1 Enzyme Assay With cGAMP Substrate
Ectonucleotide pyrophosphatase/phosphodiesterase 1 (ENPP-1) is a transmembrane glycoprotein that hydrolyzes nucleotides and nucleotide derivatives with the formation of nucleoside-5’-monophosphates. […] The 5’-AMP formed from the reaction is detected using the AMP-Glo® Kit (Promega). The assay kit contains two reagents. The first reagent terminates the enzymatic reaction, removes ATP (using adenylyl cyclase), and converts 5’-AMP produced into ADP (using polyphosphate: AMP phosphotransferase). The second reagent converts ADP to ATP (using adenylate kinase) and generates light from ATP using the luciferin/luciferase reaction.
Different concentrations of ENPP1 inhibitors are pre-incubated with 5 ng/well of human ENPP-1 enzyme (R&D Systems) for 15 minutes at 37° C. The reaction is initiated by adding 20 µM 2’3’-cGAMP and incubating for 30 minutes at 37° C. The final assay reaction mixture contains a buffer of 50 mM Tris pH 8.0, 250 mM NaCl, 0.5 mM CaCl2, 1 µM ZnCl2 and 1% DMSO. At the end of the incubation, the reaction is stopped by adding 12 µl of AMP-Glo reagent-1 and mixing the reaction uniformly for 5 minutes, followed by incubation at room temperature for one hour. Then 25 µl of AMP Glo reagent-2 is added to the reaction, mixed uniformly with a pipette, and incubated at room temperature for one hour to convert the ADP formed from reagent-1 to ATP and light. The generated light is measured in a Perkin Elmer Victor® instrument.
The IC50 values for percent inhibition versus compound concentration are determined by fitting the inhibition curves using a four-parameter variable slope model in GraphPad Prism® software. Ki values are derived from the IC50 values using the Cheng-Prusoff equation: […]

ENPP1 [3] = biological target: T1, ENPP1; experiment: ENPP1 enzyme assay with AMP-pNP substrate (hydrolysis of ATP analog)
Summary of the method: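 Human recombinant ENPP1 (60 ng/well) with 300 µM AMP-pNP in 50 mM Tris-HCl pH 8.5, 250 mM NaCl, 0.5 mM CaCl2, 1 µM ZnCl2, 0.1% DMSO, 20 min at 37 °C.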

ENPP1 [4] = biological target: T1, ENPP1; experiment: Substrate selectivity ratio, inhibition of cGAMP hydrolysis versus ATP hydrolysis; settings: ratio Ki AMP-pNP / Ki cGAMP
Procedure: The selectivity ratios for inhibition of cGAMP hydrolysis versus ATP hydrolysis were then calculated as follows: […]

[5] = cGAMP substrate, Ki from IC50 by Cheng-Prusoff, read-out: ENPP1 Inhibition -cGAMP: Ki
[6] = AMP-pNP substrate (ATP analog), Ki from IC50 by Cheng-Prusoff, read-out: ENPP1 Inhibition _AMP-pNP: Ki

| SMILES | Ki (ENPP1 [1]; [5]) [µM] | Ki (ENPP1 [3]; [6]) [µM] | Substrate Selectivity: Ki_AMP-pNP/Ki_cGAMP (ENPP1 [4]) | also measured |
| --- | --- | --- | --- | --- |
| NS(=O)(=O)NCCC1CCN(c2ccnc(NC(=O)c3cccnc3)n2)CC1 [Example 7, N-(4-(4-(2-(sulfamoylamino)ethyl)piperidin-1-yl)pyrimidin-2-yl)nicotinamide] | > 1 | – | – | inhibition at 1 µM (ENPP1 [2]): < 25% |
| NS(=O)(=O)NCCC1CCN(c2cc(-c3ccc4ncoc4c3)ncn2)CC1 [Example 9, N-(2-(1-(6-(benzo[d]oxazol-6-yl)pyrimidin-4-yl)piperidin-4-yl)ethyl)sulfamide] | > 1 | – | – | inhibition at 1 µM (ENPP1 [2]): < 25% |
| NS(=O)(=O)NCCC1CCN(c2ccnc(Nc3ccccn3)n2)CC1 [Example 11, N-(2-(1-(2-(pyridin-2-ylamino)pyrimidin-4-yl)piperidin-4-yl)ethyl)sulfamide] | – | – | – | Ki (ENPP1 [3]): > 1 µM; Ki (ENPP1 [1]): > 1 µM; inhibition at 1 µM (ENPP1 [2]): < 25% |
| NS(=O)(=O)NCCC1CCN(c2ccnc(Nc3cccnc3)n2)CC1 [Example 12, N-(2-(1-(2-(pyridin-3-ylamino)pyrimidin-4-yl)piperidin-4-yl)ethyl)sulfamide] | > 1 | – | – | inhibition at 1 µM (ENPP1 [2]): < 25% |
| NS(=O)(=O)NCCC1CCN(c2ccnc(Nc3ccncc3)n2)CC1 [Example 13, N-(2-(1-(2-(pyridin-4-ylamino)pyrimidin-4-yl)piperidin-4-yl)ethyl)sulfamide] | > 1 | – | – | inhibition at 1 µM (ENPP1 [2]): 25 to 50% |
| NS(=O)(=O)NCCC1CCN(c2ccnc(-c3cccnc3)n2)CC1 [Example 14, N-(2-(1-(2-(pyridin-3-yl)pyrimidin-4-yl)piperidin-4-yl)ethyl)sulfamide] | > 1 | – | – | inhibition at 1 µM (ENPP1 [2]; 1 µM compound, cGAMP substrate): < 25% |
| COc1cc2ccnc(N3CCC(CCNS(N)(=O)=O)CC3)c2cc1OC [Example 21, N-{2-[1-(6,7-dimethoxyisoquinolin-1-yl)piperidin-4-yl]ethyl}aminosulfonamide] | > 1 | – | – | inhibition at 1 µM (ENPP1 [2]): 25 to 50% |
| NS(=O)(=O)NCCC1CCN(c2ncnc3c2cnn3-c2ccccc2)CC1 [Example 26, N-(2-(1-(1-phenyl-1H-pyrazolo[3,4-d]pyrimidin-4-yl)piperidin-4-yl)ethyl)sulfamide] | > 1 | – | – | inhibition at 1 µM (ENPP1 [2]): < 25% |
| COc1cc(C(=O)N2CCC(CCNS(N)(=O)=O)CC2)c(N(C)C)cc1OC [Example 45, N-(2-(1-(2-(dimethylamino)-4,5-dimethoxybenzoyl)piperidin-4-yl)ethyl)sulfamide] | > 1 | – | – | inhibition at 1 µM (ENPP1 [2]; 1 µM compound, cGAMP substrate): < 25% |
| COc1cc(N)c(C(=O)N2CCC(CCNS(N)(=O)=O)CC2)cc1OC [Example 46, N-(2-(1-(2-amino-4,5-dimethoxybenzoyl)piperidin-4-yl)ethyl)sulfamide] | > 1 | – | – | inhibition at 1 µM (ENPP1 [2]; 1 µM compound, cGAMP substrate): < 25% |
| COc1cccc(C(=O)N2CCC(CCNS(N)(=O)=O)CC2)c1 [Example 48, N-(2-(1-(3-methoxybenzoyl)piperidin-4-yl)ethyl)sulfamide] | > 1 | – | – | inhibition at 1 µM (ENPP1 [2]; 1 µM compound, cGAMP substrate): 25 to 50% |
| COc1ccc(C(=O)N2CCC(CCNS(N)(=O)=O)CC2)cc1 [Example 49, N-(2-(1-(4-methoxybenzoyl)piperidin-4-yl)ethyl)sulfamide] | > 1 | – | – | inhibition at 1 µM (ENPP1 [2]; 1 µM compound, cGAMP substrate): 25 to 50% |
| COc1cc2ncnc(N3CCC(NS(N)(=O)=O)CC3)c2cc1OC [Example 51, N-(1-(6,7-dimethoxyquinazolin-4-yl)piperidin-4-yl)sulfamide] | 0.1 to 1 | – | – | inhibition at 1 µM (ENPP1 [2]; 1 µM compound, cGAMP substrate): > 75%; Ki (ENPP1 [2]; cGAMP substrate, Ki from IC50 by Cheng-Prusoff, read-out: cGAMP: Ki): 0.1 to 1 µM |
| COc1ccc2c(-c3ccc4c(c3)CN(S(N)(=O)=O)C4)ccnc2c1 [Example 402, 5-(7-methoxyquinolin-4-yl)isoindoline-2-sulfonamide] | < 0.1 | 0.1 to 1 | 46 | – |
| COc1ccc2c(-c3ccc(CCNS(N)(=O)=O)cc3)ccnc2c1 [Example 403, N-(4-(7-methoxyquinolin-4-yl)phenethyl)sulfamide] | 0.1 to 1 | > 1 | >227 | – |
| COc1ccc2c(Oc3ccc4c(c3)CCN4S(N)(=O)=O)ccnc2c1 [Example 404, 5-((7-methoxyquinolin-4-yl)oxy)indoline-1-sulfonamide] | < 0.1 | 0.1 to 1 | >103 | – |
| COc1ccc2c(-c3ccc(CS(N)(=O)=O)cc3)ccnc2c1 [Example 406, (4-(7-methoxy quinolin-4-yl)phenyl)methane sulfonamide] | 0.1 to 1 | > 1 | >65 | – |
| COc1ccc2c(Oc3ccc(NS(N)(=O)=O)cc3)c(C(F)(F)F)cnc2c1 [Example 407, N-(4-((7-methoxy-3-(trifluoromethyl)quinolin-4-yl)oxy)phenyl)sulfamide] | 0.1 to 1 | > 1 | >14 | – |
| COc1ccc2c(-c3ccc4c(c3F)CN(S(N)(=O)=O)CC4)ccnc2c1 [Example 410, 8-fluoro-7-(7-methoxyquinolin-4-yl)-3,4-dihydroisoquinoline-2(1H)-sulfamide] | < 0.1 | 0.1 to 1 | >42 | – |
| COc1cc(F)c2c(N3CCc4cc(NS(N)(=O)=O)ccc43)ccnc2c1 [Example 412, N-(1-(5-fluoro-7-methoxyquinolin-4-yl)indolin-5-yl)sulfamide] | 0.1 to 1 | > 1 | >271 | – |
| COc1ccc2c(-n3cc(Cl)c4cc(NS(N)(=O)=O)ccc43)ccnc2c1 [Example 413, N-(3-chloro-1-(7-methoxyquinolin-4-yl)-1H-indol-5-yl)sulfamide] | 0.1 to 1 | > 1 | >153 | – |
| COc1ccc2c(-c3ccc(C(C)NS(N)(=O)=O)cc3)ccnc2c1 (stereo not shown) [Example 416, N-(1-(4-(7-methoxyquinolin-4-yl)phenyl)ethyl)sulfamide] | < 0.1 | 0.1 to 1 | 50 | – |
| COc1ccc2c(NCc3ccc(NS(N)(=O)=O)cc3)ccnc2n1 [Example 417, N-(4-(((7-methoxy-1,8-naphthyridin-4-yl)amino)methyl)phenyl)sulfamide] | < 0.1 | < 0.1 | 30 | – |
| COc1ccc2c(N3CCc4cc(N(C)S(N)(=O)=O)ccc43)ccnc2c1 [Example 418, N-(1-(7-methoxyquinolin-4-yl)indolin-5-yl)-N-methylsulfamide] | < 0.1 | 0.1 to 1 | >40 | – |
| COc1ccc2c(-c3ccc(CNS(N)(=O)=O)cc3Cl)ccnc2c1 [Example 419, N-(3-chloro-4-(7-methoxyquinolin-4-yl)benzyl)sulfamide] | < 0.1 | > 1 | >70 | – |
